Legend:
[1] = biological target: cMET (Homo sapiens, UniProt P08581); assay: MET (cMET) enzyme inhibitory activity, TR-FRET kinase assay; format: biochemical; details: cMET protein, TK peptide substrate
Protocol: In addition, to measure cMET enzyme activity inhibition, an experiment was performed by the same method as the experiment for measuring the RON enzyme activity inhibition.
Specifically, the compound was prepared at a concentration of 1 mM with 100% DMSO and serially diluted 10 times through 3-fold dilution. 2 μl of the serially diluted compound was added to a 96-well plate containing 48 μl 1× kinase reaction buffer (50 mM HEPES (pH 7.4), 0.05% BSA, 0.005% Tween-20, 1 mM DTT, 0.5 mM MnCl2, 20 mM MgCl2).
The cMET protein was diluted in a cMET storage buffer (50 mM Tris-HCl (pH 7.5), 150 mM NaCl, 0.05% Brij35, 1 mM DTT, 10% glycerol) to a concentration of 263 nM, and then diluted again with 1× kinase reaction buffer to 2 nM. As a substrate cocktail, a MET-specific substrate mixture (5 μM TK peptide, 10 mM ATP) was prepared at a concentration twice the final reaction concentration.
(§1) After that, a 384-well plate was prepared, and 2.5 μl of the diluted example compound was added to each of the experimental group wells, and 2.5 μl of a 4% DMSO solution was dispensed into high control wells and low control wells.
(§2) Afterward, 2.5 μl of 2 nM cMET was dispensed to the high control wells and the experimental group wells, and 2.5 μl of 1× kinase reaction buffer was added to the low control wells, and after centrifugation at 1000 RPM for 40 seconds at room temperature, the mixtures were incubated at room temperature for 20 to 30 minutes. Then, 5 μl of the substrate cocktail (2×) was dispensed into all wells, and after centrifugation at 1000 RPM for 40 seconds at room temperature, the mixtures were incubated at room temperature for 60 minutes. Afterward, 5 μl of 90 mM EDTA was added to all wells to terminate the reaction, and the mixtures were incubated again at room temperature for 5 minutes. Thereafter, 5 μl of 4× phosphotyrosine antibodies (Perkin Elmer) containing europium was added to all wells and incubated at room temperature for 60 minutes. After the incubation, the 384-well-plate was read with a Vison plate reader. At this time, the excitation wavelength was 340 nm, and the emission wavelengths were 620 nm and 665 nm. The IC50 value of each example compound was derived using the GraphPd Prism7 program.

[2] = biological target: RON (Homo sapiens, UniProt Q04912); assay: RON inhibitory activity, TR-FRET kinase assay; format: biochemical; details: RON protein, ULight-labeled Poly GT substrate
Chain of RON (Q04912 25-1400, species assumed): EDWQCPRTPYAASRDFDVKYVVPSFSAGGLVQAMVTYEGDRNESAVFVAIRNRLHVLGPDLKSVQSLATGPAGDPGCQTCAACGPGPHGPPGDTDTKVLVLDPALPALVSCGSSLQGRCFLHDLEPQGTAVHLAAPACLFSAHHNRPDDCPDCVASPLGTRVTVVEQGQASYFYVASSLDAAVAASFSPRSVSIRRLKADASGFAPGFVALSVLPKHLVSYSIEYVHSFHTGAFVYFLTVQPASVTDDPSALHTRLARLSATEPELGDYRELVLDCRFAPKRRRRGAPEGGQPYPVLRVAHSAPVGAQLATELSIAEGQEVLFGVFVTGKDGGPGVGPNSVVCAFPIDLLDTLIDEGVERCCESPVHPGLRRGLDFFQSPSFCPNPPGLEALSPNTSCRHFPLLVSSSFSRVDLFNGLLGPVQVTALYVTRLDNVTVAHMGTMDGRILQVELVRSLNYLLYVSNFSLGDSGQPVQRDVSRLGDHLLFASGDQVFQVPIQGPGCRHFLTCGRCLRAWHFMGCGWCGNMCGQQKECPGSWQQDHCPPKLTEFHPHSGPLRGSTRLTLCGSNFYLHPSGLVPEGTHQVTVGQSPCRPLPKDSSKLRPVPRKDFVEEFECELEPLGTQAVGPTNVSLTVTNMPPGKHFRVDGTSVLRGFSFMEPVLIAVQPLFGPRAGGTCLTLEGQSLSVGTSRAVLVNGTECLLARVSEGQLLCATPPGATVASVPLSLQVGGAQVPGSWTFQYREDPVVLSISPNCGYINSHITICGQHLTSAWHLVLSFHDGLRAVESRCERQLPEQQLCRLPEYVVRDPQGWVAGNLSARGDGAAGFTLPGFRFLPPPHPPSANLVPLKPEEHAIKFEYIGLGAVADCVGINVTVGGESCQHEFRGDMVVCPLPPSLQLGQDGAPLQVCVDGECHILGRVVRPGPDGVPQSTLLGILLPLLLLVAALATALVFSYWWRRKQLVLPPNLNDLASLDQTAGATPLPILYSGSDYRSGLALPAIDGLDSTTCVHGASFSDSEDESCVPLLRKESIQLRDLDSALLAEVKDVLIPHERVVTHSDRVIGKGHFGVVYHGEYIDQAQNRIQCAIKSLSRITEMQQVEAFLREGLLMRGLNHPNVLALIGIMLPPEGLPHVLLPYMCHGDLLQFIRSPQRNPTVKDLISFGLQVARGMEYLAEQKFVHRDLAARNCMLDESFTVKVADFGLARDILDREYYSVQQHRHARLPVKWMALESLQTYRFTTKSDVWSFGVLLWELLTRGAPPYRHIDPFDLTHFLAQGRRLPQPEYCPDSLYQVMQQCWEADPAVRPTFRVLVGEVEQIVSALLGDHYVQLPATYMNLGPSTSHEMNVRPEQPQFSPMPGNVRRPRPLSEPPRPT
Protocol: To measure the RON inhibitory activity of the example compounds, the IC50 of the compounds was measured using time-resolved fluorescence energy transfer (TR-FRET).
Specifically, the compound was prepared at a concentration of 1 mM with 100% DMSO and serially diluted 10 times through 3-fold dilution. 2 μl of the serially diluted compound was added to a 96-well plate containing 48 μl of 1× kinase reaction buffer (50 mM HEPES (pH 7.4), 0.01% Tween-20, 5 mM DTT, 0.5 mM Na3VO4, 2 mM EGTA, 10 mM MgCl2).
The RON protein was diluted with a RON storage buffer (50 mM Tris-HCl (pH 7.5), 150 mM NaCl, 0.5 mM EDTA, 0.02% Triton X-100) to a concentration of 49.3 nM, and then diluted again with 1× kinase reaction buffer to be 0.4 nM. As a substrate cocktail, a RON-specific substrate mixture (40 μM ULight-labeled Poly GT, 100 nM ATP) was prepared at a concentration twice the final reaction concentration.
as §1
as §2, with “of 0.4” for “of 2”, “nM RON” for “nM cMET”, “dispensed into” for “dispensed to”, “of 30” for “of 90”

Chain of cMET (P08581 25-1390): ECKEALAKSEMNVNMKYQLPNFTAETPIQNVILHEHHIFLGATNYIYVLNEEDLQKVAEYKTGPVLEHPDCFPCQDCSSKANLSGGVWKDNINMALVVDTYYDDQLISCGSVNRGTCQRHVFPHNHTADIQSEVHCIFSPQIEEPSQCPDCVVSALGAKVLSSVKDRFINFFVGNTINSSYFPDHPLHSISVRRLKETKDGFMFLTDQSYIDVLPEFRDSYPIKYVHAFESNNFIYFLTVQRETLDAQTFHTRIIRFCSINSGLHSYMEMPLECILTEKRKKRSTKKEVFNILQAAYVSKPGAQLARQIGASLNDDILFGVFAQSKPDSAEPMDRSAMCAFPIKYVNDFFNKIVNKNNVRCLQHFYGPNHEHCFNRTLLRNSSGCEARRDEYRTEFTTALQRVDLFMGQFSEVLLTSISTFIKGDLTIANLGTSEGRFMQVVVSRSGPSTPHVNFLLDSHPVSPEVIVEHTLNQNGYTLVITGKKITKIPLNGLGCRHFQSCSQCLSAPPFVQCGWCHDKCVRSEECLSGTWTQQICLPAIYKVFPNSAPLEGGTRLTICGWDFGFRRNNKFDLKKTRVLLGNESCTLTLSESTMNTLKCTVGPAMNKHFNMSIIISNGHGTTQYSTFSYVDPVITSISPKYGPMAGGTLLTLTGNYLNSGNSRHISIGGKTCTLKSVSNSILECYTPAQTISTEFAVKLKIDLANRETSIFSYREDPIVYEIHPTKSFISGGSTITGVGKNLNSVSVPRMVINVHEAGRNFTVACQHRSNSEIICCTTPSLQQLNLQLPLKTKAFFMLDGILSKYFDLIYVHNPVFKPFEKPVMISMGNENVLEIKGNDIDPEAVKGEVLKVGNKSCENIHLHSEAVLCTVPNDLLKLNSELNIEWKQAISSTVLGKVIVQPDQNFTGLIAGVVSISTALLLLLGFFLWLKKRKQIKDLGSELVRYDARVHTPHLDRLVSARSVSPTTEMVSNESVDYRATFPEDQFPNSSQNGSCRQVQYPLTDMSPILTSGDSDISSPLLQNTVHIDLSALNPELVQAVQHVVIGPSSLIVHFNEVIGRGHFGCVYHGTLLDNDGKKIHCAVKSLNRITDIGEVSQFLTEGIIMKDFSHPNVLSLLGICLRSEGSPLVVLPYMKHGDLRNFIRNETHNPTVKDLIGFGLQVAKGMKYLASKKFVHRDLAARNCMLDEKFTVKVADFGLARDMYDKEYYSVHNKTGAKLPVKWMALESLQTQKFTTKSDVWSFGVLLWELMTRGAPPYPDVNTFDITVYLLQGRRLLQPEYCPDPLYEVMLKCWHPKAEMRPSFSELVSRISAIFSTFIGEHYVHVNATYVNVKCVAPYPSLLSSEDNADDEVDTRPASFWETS

IC50 [1] | IC50 [2] | Compound
500 to 5000 nM | < 50 nM | N#Cc1c(Oc2c(F)cc(NC(=O)c3cnn(-c4ccccn4)c3C(F)(F)F)cc2F)ccnc1N [Example 32, N-(4-((2-amino-3-cyanopyridin-4-yl)oxy)-3,5-difluorophenyl)-1-(pyridin-2-yl)-5-(trifluoromethyl)-1H-pyrazole-4-carboxamide]
50 to 500 nM | < 50 nM | N#Cc1c(Oc2c(F)cc(NC(=O)c3cnn(-c4ncccc4F)c3C(F)(F)F)cc2F)ccnc1N [Example 33, N-(4-((2-amino-3-cyanopyridin-4-yl)oxy)-3,5-difluorophenyl)-1-(3-fluoropyridin-2-yl)-5-(trifluoromethyl)-1H-pyrazole-4-carboxamide]
50 to 500 nM | < 50 nM | N#Cc1c(Oc2c(F)cc(NC(=O)c3cnn(-c4ncccc4Cl)c3C(F)(F)F)cc2F)ccnc1N [Example 34, N-(4-((2-amino-3-cyanopyridin-4-yl)oxy)-3,5-difluorophenyl)-1-(3-chloropyridin-2-yl)-5-(trifluoromethyl)-1H-pyrazole-4-carboxamide]
500 to 5000 nM | < 50 nM | N#Cc1c(Oc2c(F)cc(NC(=O)c3cnn(-c4ncccn4)c3C(F)(F)F)cc2F)ccnc1N [Example 35, N-(4-((2-amino-3-cyanopyridin-4-yl)oxy)-3,5-difluorophenyl)-1-(pyrimidin-2-yl)-5-(trifluoromethyl)-1H-pyrazole-4-carboxamide]
500 to 5000 nM | 50 to 500 nM | N#Cc1c(Oc2c(F)cc(NC(=O)c3cnn(-c4cccnn4)c3C(F)(F)F)cc2F)ccnc1N [Example 36, N-(4-((2-amino-3-cyanopyridin-4-yl)oxy)-3,5-difluorophenyl)-1-(pyridazin-3-yl)-5-(trifluoromethyl)-1H-pyrazole-4-carboxamide]
500 to 5000 nM | < 50 nM | Nc1nccc(Oc2c(F)cc(NC(=O)c3cnn(-c4ccccc4)c3C(F)(F)F)cc2F)c1C1CC1 [Example 37, N-(4-((2-amino-3-cyclopropylpyridin-4-yl)oxy)-3,5-difluorophenyl)-1-phenyl-5-(trifluoromethyl)-1H-pyrazole-4-carboxamide]
500 to 5000 nM | < 50 nM | Nc1nccc(Oc2c(F)cc(NC(=O)c3cnn(-c4ncccc4F)c3C(F)(F)F)cc2F)c1C1CC1 [Example 38, N-(4-((2-amino-3-cyclopropylpyridin-4-yl)oxy)-3,5-difluorophenyl)-1-(3-fluoropyridin-2-yl)-5-(trifluoromethyl)-1H-pyrazole-4-carboxamide]
500 to 5000 nM | < 50 nM | Nc1nccc(Oc2c(F)cc(NC(=O)c3cnn(-c4ncccc4Cl)c3C(F)(F)F)cc2F)c1C1CC1 [Example 39, N-(4-((2-amino-3-cyclopropylpyridin-4-yl)oxy)-3,5-difluorophenyl)-1-(3-chloropyridin-2-yl)-5-(trifluoromethyl)-1H-pyrazole-4-carboxamide]
500 to 5000 nM | < 50 nM | Nc1nccc(Oc2c(F)cc(NC(=O)c3cnn(-c4ccccn4)c3C(F)(F)F)cc2F)c1C1CC1 [Example 40, N-(4-((2-amino-3-cyclopropylpyridin-4-yl)oxy)-3,5-difluorophenyl)-1-(pyridin-2-yl)-5-(trifluoromethyl)-1H-pyrazole-4-carboxamide]
500 to 5000 nM | < 50 nM | Nc1nccc(Oc2c(F)cc(NC(=O)c3cnn(-c4ncccn4)c3C(F)(F)F)cc2F)c1C1CC1 [Example 41, N-(4-((2-amino-3-cyclopropylpyridin-4-yl)oxy)-3,5-difluorophenyl)-1-(pyrimidin-2-yl)-5-(trifluoromethyl)-1H-pyrazole-4-carboxamide]
500 to 5000 nM | < 50 nM | Nc1nccc(Oc2c(F)cc(NC(=O)c3cnn(-c4cccnn4)c3C(F)(F)F)cc2F)c1C1CC1 [Example 42, N-(4-((2-amino-3-cyclopropylpyridin-4-yl)oxy)-3,5-difluorophenyl)-1-(pyridazin-3-yl)-5-(trifluoromethyl)-1H-pyrazole-4-carboxamide]
500 to 5000 nM | < 50 nM | CC(C)c1c(Oc2c(F)cc(NC(=O)c3cnn(-c4ccccc4)c3C(F)(F)F)cc2F)ccnc1N [Example 43, N-(4-((2-amino-3-isopropylpyridin-4-yl)oxy)-3,5-difluorophenyl)-1-phenyl-5-(trifluoromethyl)-1H-pyrazole-4-carboxamide]
500 to 5000 nM | < 50 nM | CC(C)c1c(Oc2c(F)cc(NC(=O)c3cnn(-c4ncccc4Cl)c3C(F)(F)F)cc2F)ccnc1N [Example 44, N-(4-((2-amino-3-isopropylpyridin-4-yl)oxy)-3,5-difluorophenyl)-1-(3-chloropyridin-2-yl)-5-(trifluoromethyl)-1H-pyrazole-4-carboxamide]
500 to 5000 nM | < 50 nM | CC(C)c1c(Oc2c(F)cc(NC(=O)c3cnn(-c4ncccn4)c3C(F)(F)F)cc2F)ccnc1N [Example 45, N-(4-((2-amino-3-isopropylpyridin-4-yl)oxy)-3,5-difluorophenyl)-1-(pyrimidin-2-yl)-5-(trifluoromethyl)-1H-pyrazole-4-carboxamide]
500 to 5000 nM | < 50 nM | CC(C)c1c(Oc2c(F)cc(NC(=O)c3cnn(-c4ncccc4F)c3C(F)(F)F)cc2F)ccnc1N [Example 46, N-(4-((2-amino-3-isopropylpyridin-4-yl)oxy)-3,5-difluorophenyl)-1-(3-fluoropyridin-2-yl)-5-(trifluoromethyl)-1H-pyrazole-4-carboxamide]
500 to 5000 nM | < 50 nM | Nc1nccc(Oc2c(F)cc(NC(=O)c3cnn(-c4ncccc4F)c3C(F)(F)F)cc2F)c1CN1CCOCC1 [Example 47, N-(4-((2-amino-3-(morpholinomethyl)pyridin-4-yl)oxy)-3,5-difluorophenyl)-1-(3-fluoropyridine-2-yl)-5-(trifluoromethyl)-1H-pyrazole-4-carboxamide]
> 5000 nM | < 50 nM | Nc1nccc(Oc2c(F)cc(NC(=O)c3cnn(-c4ncccn4)c3C(F)(F)F)cc2F)c1CN1CCOCC1 [Example 48, N-(4-((2-amino-3-(morpholinomethyl)pyridin-4-yl)oxy)-3,5-difluorophenyl)-1-(pyrimidin-2-yl)-5-(trifluoromethyl)-1H-pyrazole-4-carboxamide]
500 to 5000 nM | < 50 nM | Nc1nccc(Oc2c(F)cc(NC(=O)c3cnn(-c4ncccc4Cl)c3C(F)(F)F)cc2F)c1CN1CCOCC1 [Example 49, N-(4-((2-amino-3-(morpholinomethyl)pyridin-4-yl)oxy)-3,5-difluorophenyl)-1-(3-chloropyridin-2-yl)-5-(trifluoromethyl)-1H-pyrazole-4-carboxamide]
500 to 5000 nM | < 50 nM | Nc1nccc(Oc2c(F)cc(NC(=O)c3cnn(-c4ccccc4)c3C(F)(F)F)cc2F)c1CN1CCOCC1 [Example 50, N-(4-((2-amino-3-(morpholinomethyl)pyridin-4-yl)oxy)-3,5-difluorophenyl)-1-phenyl-5-(trifluoromethyl)-1H-pyrazole-4-carboxamide]
